Cytotoxicity data for 99 compounds are collected here from ChEMBL document CHEMBL3507680, “University of Dundee, Gates Library screen for HepG2 cell viability”.

The series is described as follows: Human HepG2 cell viability assay in 384 well format. It counts as toxicity, cell-based. On the set-up: dose 125 nL, time 70.5 hour; cytotoxicity at 70.5 h: concentration not given beside the values. Particulars: HepG2 cells, read-out: Inhibition.
On to `O=C(Nc1ccccc1)[C@H]1C[C@@H]2CN(S(=O)(=O)C3CC3)C[C@H]1O2`, for which the cytotoxicity at 70.5 h was -14.4%. Take `O=C(c1ccco1)N1CC[C@H]2C[C@@H](c3nccs3)O[C@@H]2C1`: the cytotoxicity at 70.5 h was -1.13%. For `CC(C)CS(=O)(=O)N1C[C@H]2C[C@H](C(=O)Nc3cccnc3)[C@@H](C1)O2`, the cytotoxicity at 70.5 h is -6.34%. Turning to `COCCNC(=O)[C@@H]1CCO[C@@H]2CCN(Cc3cnn(C)c3)C[C@@H]21`, the cytotoxicity at 70.5 h was -11.1%.

In the case of `Cn1cc(CN2CC[C@H]3OCC[C@@H](C(=O)NCc4ccco4)[C@@H]3C2)cn1`, the cytotoxicity at 70.5 h is -8%.

For `Cn1cc(CN2CCc3onc(COCC4CC4)c3C2)cn1`, the cytotoxicity at 70.5 h is -12.8%.

For `O=c1cc(Cn2ccnc2)nc2n1CCCN(Cc1ccc(F)cc1)C2`, the cytotoxicity at 70.5 h was -14.3%. With `O=c1cc(Cn2ccnc2)nc2n1CCCN(Cc1ccncc1)C2`, the cytotoxicity at 70.5 h is -21.3%. For the compound `O=C(Nc1ccccc1)[C@H]1C[C@@H]2CN(C(=O)Nc3ccccc3)C[C@H]1O2`, the cytotoxicity at 70.5 h is -27.2%. The figure for `CC(=O)N1CCN(C(=O)NC(C)C)CC2(CNC(=O)C2)C1` (centres undefined) is -28.3%. With `CCS(=O)(=O)N1CCN(C(=O)NC(C)C)CC2(CNC(=O)C2)C1` (centres undefined), the cytotoxicity at 70.5 h was -26.5%. On to `O=S1(=O)c2ccccc2OCC2(CCN(CCO)CC2)CN1CC1CC1`, for which the cytotoxicity at 70.5 h was -0.378%. For `CCS(=O)(=O)N1CCc2cc(C(=O)NC)c(NCC3CC3)nc2CC1`, the cytotoxicity at 70.5 h is -4.13%. As for `COCCCNC(=O)CCn1ncc2c(Cl)cccc21`, the cytotoxicity at 70.5 h was -7.64%. As to `O=C1c2cnc(N3CCCC3)nc2CN1CCc1ccc(Cl)cc1`, the cytotoxicity at 70.5 h was -6.15%. Take `Cc1nn(C)c2cnn(Cc3ccc(C(=O)N4CCN(C)CC4)o3)c12`: the cytotoxicity at 70.5 h amounted to 28.4%. The figure for `CCn1nc(C)c2c1cnn2CCNS(C)(=O)=O` is -6.31%; for `CCn1nc(C)c2c1cnn2CCNS(=O)(=O)CC` it is 3.21%; for `CCn1ncc(NC(=O)CCn2ncc3c(Cl)cccc32)c1C` it is 7.52%. Take `COCCNC(=O)CCn1ncc2c(Cl)cccc21`: the cytotoxicity at 70.5 h came out at 16.6%. For the compound `CCn1ccc(NC(=O)CCn2nc(C)c3ccccc32)n1`, the cytotoxicity at 70.5 h was -10.3%. As for `CCn1nc(C)cc1NC(=O)CCn1nc(C)c2ccccc21`, the cytotoxicity at 70.5 h was -10.1%. In the case of `CN(C)C(=O)c1nnc2ccc(N3CCOCC3)cc2n1`, the cytotoxicity at 70.5 h was -2.48%. Next, `O=C(NC1CCCCC1)c1nnc2ccc(N3CCOCC3)cc2n1`: -8.08%. As for `COCCNC(=O)c1nnc2ccc(N3CCOCC3)cc2n1`, the cytotoxicity at 70.5 h amounted to 23.1%. In the case of `CNC(=O)c1nnc2ccc(N3CCOCC3)cc2n1`, the cytotoxicity at 70.5 h is -4.03%. Next, `Cc1nn(C)c(C)c1NC(=O)CCn1ncc2ccccc21`: 9.95%; `CCn1ccc(C(=O)Nc2ccc3c(c2)C(C)(C)C(=O)N3C)n1`: -15.5%. Take `CCCn1ccc(C(=O)Nc2ccc3c(c2)C(C)(C)C(=O)N3C)n1`: the cytotoxicity at 70.5 h was 13.3%. Consider `NCc1n[nH]c(-c2ccc(Br)cc2)n1`, for which the cytotoxicity at 70.5 h stood at 2.27%. Consider `CCn1nc(C)c2ncnc(N(C)Cc3ccco3)c21`, for which the cytotoxicity at 70.5 h is -1.38%. For the compound `CCn1nc(C)c2ncnc(NCCCn3ccnc3)c21`, the cytotoxicity at 70.5 h is -9.37%.

`CCN(Cc1ccccc1)c1ncnc2c(C)nn(CC)c12`: the cytotoxicity at 70.5 h was -4.47%. Next, `CCn1nc(C)c2nc(C)nc(NC3CCCC3)c21`: -7.43%; `CCn1nc(C)c2nc(C)nc(NCCc3ccccc3)c21`: 2.39%; `CCc1nc(NCCCn2cccn2)c2c(n1)c(C)nn2CC`: 14.8%. Take `CCc1nc(Nc2cccc(C(=O)NC)c2)c2c(n1)c(C)nn2CC`: the cytotoxicity at 70.5 h is -11%. The figure for `CCn1nc(C)c2ncnc(NCCn3cccn3)c21` is -1.42%. On to `CCCc1nc(NCC(=O)N2CCOCC2)c2c(n1)c(C)nn2CC`, for which the cytotoxicity at 70.5 h worked out at 44.1%. The figure for `CCCc1nc(NCCOC)c2c(n1)c(C)nn2CC` is -7.81%; for `Cc1nn(C)c2c(NC3CCCC3)nc(C3CC3)nc12` it is -7.15%. With `COc1ccc(CNc2nc(C3CC3)nc3c(C)nn(C)c23)cc1`, the cytotoxicity at 70.5 h is -0.926%.

`CCn1nc(C)c2nc(C(C)C)nc(NCC(C)O)c21` (centres undefined): the cytotoxicity at 70.5 h was -6.78%. With `CCn1nc(C)c2nc(C(C)C)nc(NCC(C)C)c21`, the cytotoxicity at 70.5 h is -8.62%. Next, `CCCc1nc(NCCCOCC)c2c(n1)c(C)nn2CC`: -18.2%. For the compound `CCCc1nc(N2CCC(C)CC2)c2c(n1)c(C)nn2CC`, the cytotoxicity at 70.5 h was -10.6%. Turning to `Cc1nn(C)c2c(N(C)Cc3cccs3)nc(C3CC3)nc12`, the cytotoxicity at 70.5 h stood at 22.5%. Take `Cc1nn(C)c2c(NCc3ccncc3)nc(C3CC3)nc12`: the cytotoxicity at 70.5 h is 3.06%. The figure for `CCn1nc(C)c2nc(C(C)C)nc(NCCc3ccc(O)cc3)c21` is -7.1%; for `CSc1ncnc(NCc2ccco2)c1C#N` it is -12.3%.

With `Cc1cccc2c1cnn2CCCNC(=O)c1cnn(C)c1`, the cytotoxicity at 70.5 h is -2.01%. Take `CCN(CC)C(=O)c1nnsc1-c1ccc(C)cc1`: the cytotoxicity at 70.5 h was -8.98%. Consider `Cc1ccc(-c2snnc2C(=O)NCCCO)cc1`, for which the cytotoxicity at 70.5 h was -11.1%. `COc1cc(C(=O)NCCCO)cc2occc12`: the cytotoxicity at 70.5 h is -9.45%. For the compound `CCOc1cc(C(=O)N2CCN(C)CC2)cc2occc12`, the cytotoxicity at 70.5 h is 3.95%. Regarding `CCOC(=O)N1CCN(C(=O)c2cc(OCC)c3ccoc3c2)CC1`, the cytotoxicity at 70.5 h worked out at 50%.

Turning to `CCOC(=O)C1CCN(C(=O)c2cc(OCC)c3ccoc3c2)CC1`, the cytotoxicity at 70.5 h was -10.7%.

As for `COCc1cccc(S(=O)(=O)Nc2ncc(C)s2)c1`, the cytotoxicity at 70.5 h was -12.2%. Regarding `CSCc1cccc(S(=O)(=O)NCc2cnn(C)c2C)c1`, the cytotoxicity at 70.5 h was -2.3%. Turning to `COCCNS(=O)(=O)c1cccc(CSC)c1`, the cytotoxicity at 70.5 h stood at 18.6%. For `CSCc1cccc(S(=O)(=O)N2CCCCCC2)c1`, the cytotoxicity at 70.5 h is -4.01%. Turning to `CSCc1cccc(S(=O)(=O)N2CCCC2)c1`, the cytotoxicity at 70.5 h is -6.64%. For the compound `CSCc1cccc(S(=O)(=O)N2CCCCC2)c1`, the cytotoxicity at 70.5 h is -6.14%. In the case of `CCNS(=O)(=O)c1cccc(CSC)c1`, the cytotoxicity at 70.5 h amounted to 5.32%. As to `CCN(CC)c1nc(C)cc(C(=O)Nc2cccc(C(N)=O)c2)n1`, the cytotoxicity at 70.5 h is -7.03%. Consider `Cc1nn(C(C)C)c2cn(CC(=O)NC3CCSCC3)nc12`, for which the cytotoxicity at 70.5 h is -3.25%. With `COc1cccc(CNC(=O)c2cc(C)nc(N3CCCCC3)n2)c1`, the cytotoxicity at 70.5 h was -9.69%. Turning to `Cc1cc(C(=O)NCc2cnn(C)c2C)nc(N2CCCCCC2)n1`, the cytotoxicity at 70.5 h is -3.96%.

With `CCN1CCN(c2ncc3c(=O)n(Cc4ccco4)ccc3n2)CC1`, the cytotoxicity at 70.5 h is -5.38%. Turning to `Oc1ccc(Cl)cc1CNCc1ccccc1Cl`, the cytotoxicity at 70.5 h is -8.63%. On to `Oc1ccc(Cl)cc1CNCc1ccccc1C(F)(F)F`, for which the cytotoxicity at 70.5 h was -2.09%. With `Oc1ccc(Cl)cc1CNCc1cccc(C(F)(F)F)c1`, the cytotoxicity at 70.5 h is -12.9%.

As to `COc1cccc(CNCc2cccc(Cl)c2)c1O`, the cytotoxicity at 70.5 h is -4.96%. Consider `COc1cccc(CNCc2ccc(F)cc2Cl)c1O`, for which the cytotoxicity at 70.5 h is -1.41%. As to `CSc1nc2ccsc2c(=O)n1CC(=O)NC1CCCCC1`, the cytotoxicity at 70.5 h was -6.83%. As for `CSc1nc2ccsc2c(=O)n1CC(=O)N1CCCCC1C` (centres undefined), the cytotoxicity at 70.5 h was -9.11%. Take `CSc1nc2ccsc2c(=O)n1CC(=O)N(C)c1ccccc1`: the cytotoxicity at 70.5 h was -4.9%. The figure for `CCN(CC)C(=O)CSc1nc2cc(C)nc-2c(O)n1CC` is 6.98%; for `Cc1cc2nc(SCC(=O)N3CCCC3)n(Cc3ccco3)c(O)c-2n1` it is -8.29%. Take `O=C(c1nn[nH]c1Nc1ccc(Cl)cc1)N1CCSCC1`: the cytotoxicity at 70.5 h stood at 9.23%. Regarding `c1cnc(-c2nn3c(CN4CCCCCC4)nnc3s2)cn1`, the cytotoxicity at 70.5 h was -8.05%. On to `CC(C)CCN1C[C@H]2C[C@H](C(=O)Nc3ccccc3)[C@@H](C1)O2`, for which the cytotoxicity at 70.5 h is -21.4%. The figure for `O=C(Cc1ccccc1)N1CC[C@H]2[C@@H]1CCC(=O)N2Cc1ccncc1` is 1.86%; for `Cc1ccc(CN2CCC3(CC2)CN(c2cnn(C)c2)C(=O)CO3)o1` it is -9.82%; for `O=C(CC1CC1)N1CC[C@H]2[C@@H]1CCC(=O)N2Cc1ccncc1` it is -9.8%. In the case of `COc1ncccc1C(=O)N1CC[C@H]2C[C@H](c3nnc(C)[nH]3)O[C@@H]2C1`, the cytotoxicity at 70.5 h was -14.1%. Regarding `O=S(=O)(C1CC1)N1C[C@H]2CCC[C@@]2(COCc2ccccn2)C1`, the cytotoxicity at 70.5 h is -14.3%. For the compound `Cc1ccc(C(=O)N2CCOCC3(CCN(C4CCOCC4)C3)C2)o1` (centres undefined), the cytotoxicity at 70.5 h is -13.2%. On to `CCN(C)c1ncnc2c1CCN(C(=O)Cc1ccccn1)CC2`, for which the cytotoxicity at 70.5 h was -9.09%. `CNC(=O)c1cc2c(nc1NCC(C)C)CCN(c1ccncn1)CC2`: the cytotoxicity at 70.5 h is -0.746%. Next, `Fc1ccc(CN2CCn3cc(Cn4cccn4)nc3C2)cc1`: -20.8%; `Cc1nc(CN2CC3(CCN(c4ncccn4)C3)CC2=O)cs1` (centres undefined): -23.8%. The figure for `COCCN1C[C@H]2[C@@H](C1)N(Cc1cnn(C)c1)CC[C@H]2OC` is -11.3%; for `COc1ncccc1CN1C[C@@H]2COC[C@]2(CNS(C)(=O)=O)C1` it is -13.2%. As for `CNC(=O)c1cc2c(nc1NCC1CC1)CCN(CC1CC1)CC2`, the cytotoxicity at 70.5 h is -26.7%.

As for `c1cncc(OCc2noc3c2CN(Cc2ccsc2)CC3)c1`, the cytotoxicity at 70.5 h was determined as 15.9%.

For `CCc1ccc(CN2CCCn3c(nc(Cn4ccnc4)cc3=O)C2)o1`, the cytotoxicity at 70.5 h is -0.664%. With `CNC(=O)CN1CCOCC2(CN(CCC(F)(F)F)CCO2)C1` (centres undefined), the cytotoxicity at 70.5 h was determined as 4.91%. For `CO[C@@H]1CCN(Cc2cnn(C)c2)[C@@H]2CN(Cc3cccnc3)C[C@@H]21`, the cytotoxicity at 70.5 h is -9.6%.
